The values that follow come from ChEMBL document CHEMBL5331088, “Design and synthesis of novel halogen rich salicylanilides as potential antileishmanial agents” (Eur J Med Chem, 2023).

Series [1] has as its system Leishmania donovani. The experiment in a line: Antileishmanial activity against Leishmania donovani amastigotes infected in J774.A1 macrophage assessed as inhibition of parasite growth by luciferase assay. Format: functional, organism-based.
Series [2] in a line: Cytotoxicity against mouse J774A.1 cells assessed as reduction in cell viability by MTT assay. Format: toxicity, cell-based, J774.A1. On the technique in general: Formazan colour is commonly taken as a measure of viable cells.
Series [3] can be described thus: Cytotoxicity against African green monkey Vero cells assessed as reduction in cell viability by MTT assay. Format: toxicity, cell-based. The conditions noted are these: chlorocebus sabaeus.
The nature of series [4]: Selectivity index, ratio of CC50 for cytotoxicity against mouse J774.A1 cells to IC50 for antileishmanial activity against Leishmania donovani amastigotes infected in J774.A1 macrophage. Format: toxicity, cell-based. The conditions noted are these: read-out: Ratio CC50/IC50.
Series [5] is described as follows: Selectivity index, ratio of CC50 for cytotoxicity against African green monkey Vero cells to IC50 for antileishmanial activity against Leishmania donovani amastigotes infected in J774.A1 macrophage. Format: toxicity, cell-based. The conditions noted are these: read-out: Ratio CC50/IC50.
In series [6] the test system is Leishmania donovani. The experiment in a line: Antileishmanial activity against Leishmania donovani amastigotes infected in golden hamster model assessed as inhibition of splenic parasite burden at 50 mg/kg,ip for 5 consecutive days measured after 7 days of post treatment. Format: functional. The following applies: for inhibition in vivo at 50 mg/kg: 168 h, time 7 day.

Series [7] has as its system Leishmania donovani. The experiment in a line: Antileishmanial activity against Leishmania donovani amastigotes infected in golden hamster model assessed as inhibition of splenic parasite burden at 50 mg/kg,ip for 5 consecutive days measured after 28 days of post treatment. Format: functional. The conditions noted are these: for inhibition in vivo at 50 mg/kg: 672 h, time 28 day.

[8] abbreviates: Leishmania donovani, J774.A1, read-out: IC50.

For orientation: IC50 means the point on the concentration scale where inhibition reaches its midpoint. The CC50 is the concentration at which the toxic effect on the cells reaches its halfway point. With `O=C(Nc1cc(Cl)cc(Cl)c1)c1ccccc1O`, the IC50 in the series on Leishmania donovani [1] (setting [8]) is 7.97 µM. The CC50 in series [2] was 42.2 µM; in series [3], 7.09 µM. In addition, the selectivity ratio was 5.3 in series [4] and 0.89 in series [5].

For the compound `O=C(Nc1ccc([N+](=O)[O-])cc1Cl)c1ccccc1`, the half-inhibitory concentration (IC50) result in the series with Leishmania donovani [1] is reported as “Not Active”.

As to `O=C(Nc1ccc(F)cc1[N+](=O)[O-])c1ccccc1O`, in the series with Leishmania donovani [1] (setting [8]), the IC50 came to 7.47 µM. Besides, the 50% cytotoxic concentration (CC50) was found to be 41.1 µM in series [2] and 65.2 µM in series [3]. Besides, the selectivity ratio amounted to 5.5 in series [4] and 8.73 in series [5].

Take `O=C(Nc1cc(Cl)cc(Cl)c1)c1cc(Cl)ccc1O`: the IC50 in the series with Leishmania donovani [1] (setting [8]) came out at 3.83 µM. Also, the CC50 stood at 38.8 µM in series [2] and 6.49 µM in series [3]. Also, the selectivity ratio in series [4] was 10.1; in series [5] it was 1.69.

As to `O=C(Nc1cccc(C(F)(F)F)c1)c1cc(Cl)ccc1O`, the IC50 in the series on Leishmania donovani [1] (setting [8]) is 3.47 µM. The CC50 in series [3] turned out to be 3.17 µM.

On to `CCCCCCCCCCCCCCCCOP(=O)([O-])OCC[N+](C)(C)C` [MILTEFOSINE], for which the IC50 in the series with Leishmania donovani [1] (setting [8]) was determined as 9.25 µM. In addition, the CC50 in series [2] was found to be 53.3 µM; in series [3], 51.8 µM. Further, the selectivity ratio is 5.76 in series [4] and 5.6 in series [5].

As to `O=C(Nc1ccc(F)c(Cl)c1)c1ccccc1O`, the IC50 result in the series with Leishmania donovani [1] was “Not Active”.

Regarding `O=C(Nc1ccc(F)cc1)c1ccccc1O`, in the series with Leishmania donovani [1], the IC50 result was “Not Active”.

With `O=C(Nc1ccc([N+](=O)[O-])cc1Cl)c1ccccc1O`, the half-inhibitory concentration (IC50) with Leishmania donovani [1] (setting [8]) was found to be 3.27 µM. Moreover, the CC50 was found to be 42.1 µM in series [2] and 7.29 µM in series [3]. For the same compound, the selectivity ratio in series [4] is 12.9; in series [5], 2.23.

The term inhibition denotes the percentage by which the read-out fell short of the control. For Sodium stibogluconate, the values for the inhibition with Leishmania donovani [6] (time 7.0 day) and in the series with Leishmania donovani [7] (time 28.0 day) were 81.4% and 85.4%, respectively.

Take `O=C(Nc1ccc(Cl)c(C(F)(F)F)c1)c1ccccc1O`: in the series on Leishmania donovani [1], the half-maximal inhibitory concentration (IC50) entry is “Not Active”.

Take `O=C(Nc1ccc(F)c(F)c1)c1cc(Cl)ccc1O`: the IC50 in the series with Leishmania donovani [1] (setting [8]) turned out to be 3.54 µM. Moreover, the CC50 in series [2] came to 51.2 µM; in series [3], 10.6 µM. Besides, the selectivity ratio was 14.5 in series [4] and 2.99 in series [5].

Take `O=C(Nc1ccccc1)c1ccccc1` [N-PHENYLBENZAMIDE]: the IC50 result in the series with Leishmania donovani [1] is on record as “Not Active”.

In the case of `O=C(Nc1ccc(F)cc1)c1cc(Cl)ccc1O`, the IC50 entry with Leishmania donovani [1] was “Not Active”.

Consider `O=C(Nc1ccc(Cl)c(C(F)(F)F)c1)c1cc(Cl)ccc1O`, for which the IC50 in the series on Leishmania donovani [1] (setting [8]) amounted to 4 µM. Besides, the CC50 in series [2] was found to be 52.4 µM; in series [3] it was 4.31 µM. The selectivity ratio in series [4] was determined as 13.1; in series [5] it was 1.08.

In the case of `O=C(Nc1ccc([N+](=O)[O-])cc1Cl)c1cc(Cl)ccc1O` [NICLOSAMIDE], the half-maximal inhibitory concentration (IC50) with Leishmania donovani [1] (setting [8]) was 3.68 µM. Moreover, the CC50 in series [2] turned out to be 42.1 µM; in series [3], 3.06 µM. Also, the selectivity ratio in series [4] was determined as 11.4; in series [5] it was 0.61.

As for `O=C(Nc1cccc(Cl)c1)c1cc(Cl)ccc1O`, the IC50 with Leishmania donovani [1] (setting [8]) is 4.62 µM. For the same compound, the CC50 in series [2] is 50.5 µM; in series [3], 13.9 µM. In addition, the selectivity ratio in series [4] was determined as 10.9; in series [5], 3.

As for `O=C(Nc1ccc(Br)cc1)c1cc(Cl)ccc1O`, the IC50 with Leishmania donovani [1] (setting [8]) turned out to be 3.83 µM. Further, the CC50 came to 50.8 µM in series [2] and 10.1 µM in series [3]. Further, the selectivity ratio came to 13.3 in series [4] and 2.64 in series [5].

As for `O=C(Nc1ccccc1)c1cc(Cl)ccc1O`, the IC50 entry with Leishmania donovani [1] is “Not Active”.

What is called inhibition in vivo is the drop in the measured response relative to a control, in per cent. Take `O=C(Nc1ccc(F)c(Cl)c1)c1cc(Cl)ccc1O`: in the series on Leishmania donovani [1] (setting [8]), the IC50 turned out to be 2.89 µM. Besides, the CC50 turned out to be 52.4 µM in series [2] and 14.5 µM in series [3]. Also, the selectivity ratio in series [4] was 18.1; in series [5], 5.02. For the same compound, the values for the inhibition in vivo at 50 mg/kg in the series with Leishmania donovani [6] and with Leishmania donovani [7] were 25.1% and 16.5%, respectively.

As for `O=C(Nc1ccc(Cl)cc1)c1cc(Cl)ccc1O`, in the series with Leishmania donovani [1] (setting [8]), the half-maximal inhibitory concentration (IC50) worked out at 2.09 µM. The figures for the CC50 in series [2] and in series [3] were 39 µM and 16.3 µM, respectively. Further, the selectivity ratio came to 18.7 in series [4] and 7.8 in series [5]. In addition, the results for the inhibition in vivo at 50 mg/kg in the series with Leishmania donovani [6] and with Leishmania donovani [7] were 63.1% and 65.2%, respectively.

For `O=C(Nc1ccccc1)c1ccccc1O` [SALICYLANILIDE], the half-maximal inhibitory concentration (IC50) result with Leishmania donovani [1] was “Not Active”.

For the compound `O=C(Nc1ccc(F)c(F)c1)c1ccccc1O`, the IC50 in the series with Leishmania donovani [1] (setting [8]) was determined as 7.36 µM. For the same compound, the CC50 in series [2] was determined as 43.9 µM; in series [3], 45.4 µM. Further, the selectivity ratio in series [4] is 5.96; in series [5], 6.17.

As to `O=C(Nc1ccc([N+](=O)[O-])cc1F)c1cc(Cl)ccc1O`, the IC50 in the series with Leishmania donovani [1] (setting [8]) is 3.98 µM. For the same compound, the CC50 is 43.1 µM in series [2] and 3.23 µM in series [3]. Besides, the figures for the selectivity ratio in series [4] and in series [5] were 10.8 and 0.81, respectively.

Regarding `O=C(Nc1ccc([N+](=O)[O-])cc1F)c1ccccc1O`, in the series with Leishmania donovani [1] (setting [8]), the IC50 stood at 4.06 µM. Besides, the CC50 in series [2] came to 42.8 µM; in series [3] it was 11.7 µM. In addition, the results for the selectivity ratio in series [4] and in series [5] were 10.5 and 2.89, respectively.

As to `O=C(Nc1ccccc1F)c1cc(Cl)ccc1O`, the IC50 in the series on Leishmania donovani [1] (setting [8]) stood at 3.95 µM. The CC50 in series [2] came out at 44 µM; in series [3], 12.1 µM. In addition, the selectivity ratio turned out to be 11.1 in series [4] and 3.06 in series [5].

Consider `O=C(Nc1ccccc1F)c1ccccc1O`, for which, in the series with Leishmania donovani [1], the IC50 result is reported as “Not Active”.

Turning to `O=C(Nc1cc(Cl)cc(Cl)c1O)c1c(O)c(Cl)cc(Cl)c1Cl` [OXYCLOZANIDE], in the series on Leishmania donovani [1] (setting [8]), the IC50 came out at 7.71 µM. The CC50 turned out to be 42.4 µM in series [2] and 156 µM in series [3]. The selectivity ratio was 5.49 in series [4] and 31.2 in series [5].

Regarding `O=C(Nc1ccccc1)c1cccc(Cl)c1`, the half-maximal inhibitory concentration (IC50) result with Leishmania donovani [1] is on record as “Not Active”.

In the case of `O=C(Nc1ccc(Br)c(C(F)(F)F)c1)c1ccccc1O`, the IC50 in the series on Leishmania donovani [1] (setting [8]) stood at 3.82 µM. The CC50 in series [2] worked out at 44.2 µM; in series [3], 4.33 µM. Further, the selectivity ratio in series [4] stood at 11.6; in series [5], 1.13.

For `O=C(Nc1ccccc1Cl)c1cc(Cl)ccc1O`, the IC50 in the series with Leishmania donovani [1] (setting [8]) is 2.62 µM. For the same compound, the CC50 in series [2] came out at 46.5 µM; in series [3], 13.2 µM. Besides, the values for the selectivity ratio in series [4] and in series [5] were 17.7 and 5.02, respectively.

As for `O=C(Nc1ccc([N+](=O)[O-])cc1Cl)c1cccc(Cl)c1`, the IC50 result in the series with Leishmania donovani [1] is listed as “Not Active”.

Consider `O=C(Nc1ccc(Br)c(C(F)(F)F)c1)c1cc(Cl)ccc1O`, for which, in the series on Leishmania donovani [1] (setting [8]), the IC50 is 3.5 µM. The CC50 was 46.6 µM in series [2] and 2.54 µM in series [3]. The results for the selectivity ratio in series [4] and in series [5] were 13.3 and 0.72, respectively.

Consider `O=C(Nc1ccc(F)cc1[N+](=O)[O-])c1cc(Cl)ccc1O`, for which the IC50 in the series on Leishmania donovani [1] (setting [8]) stood at 3.88 µM. In addition, the CC50 was 49.6 µM in series [2] and 21.9 µM in series [3]. The selectivity ratio was 12.8 in series [4] and 5.65 in series [5].
